Experimental data: patent publication US20170334927A1 (Shanghai Sun-sail Pharmaceutical Science & Technology Co., …, priority 2014, published 2017)
Converted amounts (≈) assume the structure as drawn.

Experiments:
Assay in all cases: microbe, parasite or virus in culture
Format in all cases: cell-based
[1] = test system: drug-resistant Mycobacterium tuberculosis 261 (rifampicin-resistant); details: for MIC: Mycobacterium tuberculosis, read-out: MIC, drug-resistant bacterium 261 (R single-resistant); for MIC value, times of that of the control drug PA-824, strain 261: relative to PA-824
[2] = test system: drug-resistant Mycobacterium tuberculosis 246 (streptomycin-resistant); details: for MIC: Mycobacterium tuberculosis, read-out: MIC, drug-resistant bacterium 246 (S single-resistant); for MIC value, times of that of the control drug PA-824, strain 246: relative to PA-824
[3] = test system: drug-resistant Mycobacterium tuberculosis 242 (isoniazid-resistant); details: for MIC: Mycobacterium tuberculosis, read-out: MIC, drug-resistant bacterium 242 (H single-resistant); for MIC value, times of that of the control drug PA-824, strain 242: relative to PA-824

| Compound | MIC [1] [ng/mL] | MIC value, times of that of the control drug PA-824, strain 261 [1] [times] | MIC [2] [ng/mL] | MIC value, times of that of the control drug PA-824, strain 246 [2] [times] | MIC [3] [ng/mL] | MIC value, times of that of the control drug PA-824, strain 242 [3] [times] |
| --- | --- | --- | --- | --- | --- | --- |
| O=[N+]([O-])c1cn2c(n1)OC[C@@H](NCc1ccc(N3CCN(c4ccc(OC(F)(F)F)cc4)CC3)nc1)C2 [Compound 4, (S)-2-nitro-N-((6-(4-(4-(trifluoromethoxy)phenyl)piperazin-1-yl)pyrid-3-yl)methyl)-6,7-dihydro-5H-imidazo[2,1-b][1,3]oxazin-6-amine] | 1.95 (≈ 0.00375 µM) | 256 | 1.95 (≈ 0.00375 µM) | 256 | 1.95 (≈ 0.00375 µM) | 512 |
| O=[N+]([O-])c1cn2c(n1)OC[C@@H](OCc1ccc(OC(F)(F)F)cc1)C2 [PA-824, reference compound] | 500 (≈ 1.39 µM) | – | 500 (≈ 1.39 µM) | – | 1000 (≈ 2.78 µM) | – |
| O=[N+]([O-])c1cn2c(n1)OC[C@@H](NCc1cnc(N3CCN(c4ccc(OC(F)(F)F)cc4)CC3)nc1)C2 [Compound 18] | 7.8 (≈ 0.015 µM) | 64 | 7.8 (≈ 0.015 µM) | 64 | 7.8 (≈ 0.015 µM) | 128 |
| N#CC1(c2ccc(OC(F)(F)F)cc2)CCN(c2ccc(CN[C@@H]3COc4nc([N+](=O)[O-])cn4C3)cn2)CC1 [Compound 10, (S)-1-(5-(((7-nitro-3,4-dihydro-2H-imidazo[2,1-b][1,3]oxazin-3-yl)amino)methyl)pyridin-2-yl)-4-(4-(trifluoromethoxy)phenyl)piperidine-4-carbonitrile] | 1.95 (≈ 0.00359 µM) | 256 | 1.95 (≈ 0.00359 µM) | 256 | 1.95 (≈ 0.00359 µM) | 512 |
| O=[N+]([O-])c1cn2c(n1)OC[C@@H](NCc1ccc(N3CCC(Oc4ccc(OC(F)(F)F)cc4)CC3)nc1)C2 [Compound 1, (S)-2-nitro-N-((6-(4-(4-(trifluoromethoxy)phenoxy)piperidin-1-yl)pyrid-3-yl)methyl)-6,7-dihydro-5H-imidazo[2,1-b][1,3]oxazin-6-amine] | 7.8 (≈ 0.0146 µM) | 64 | 7.8 (≈ 0.0146 µM) | 64 | 7.8 (≈ 0.0146 µM) | 128 |
| CN(Cc1cnc(N2CCN(c3ccc(OC(F)(F)F)cc3)CC2)nc1)[C@@H]1COc2nc([N+](=O)[O-])cn2C1 [Compound 44, (S)—N-methyl-2-nitro-N-((2-(4-(4-(trifluoromethoxy)phenyl)piperazin-1-yl)pyrimidin-5-yl)methyl)-6,7-dihydro-5H-imidazo[2,1-b][1,3]oxazin-6-amine] | 1.95 (≈ 0.00365 µM) | 256 | 1.95 (≈ 0.00365 µM) | 256 | 1.95 (≈ 0.00365 µM) | 512 |
| O=[N+]([O-])c1cn2c(n1)OC[C@@H](NCc1ccc(N3C4CCC3CC(Oc3ccc(OC(F)(F)F)cc3)C4)nc1)C2 (stereo partly drawn) [Compound 14, (6S)-2-nitro-N-((6-(3-(4-(trifluoromethoxy)phenoxy)-8-azabicyclo[3.2.1]octan-8-yl)pyrid-3-yl)methyl)-6,7-dihydro-5H-imidazo[2,1-b][1,3]oxazin-6-amine] | 7.8 (≈ 0.0139 µM) | – | 7.8 (≈ 0.0139 µM) | – | 15.6 (≈ 0.0278 µM) | – |
| O=[N+]([O-])c1cn2c(n1)OC[C@@H](NCc1cnc(N3CCN(c4ccc(C(F)(F)F)cc4)CC3)nc1)C2 [Compound 31, (S)-2-nitro-N-((2-(4-(4-(trifluoromethyl)phenyl)piperazin-1-yl)pyrimidin-5-yl)methyl)-6,7-dihydro-5H-imidazo[2,1-b][1,3]oxazin-6-amine] | 7.8 (≈ 0.0155 µM) | – | 7.8 (≈ 0.0155 µM) | – | 7.8 (≈ 0.0155 µM) | – |
| N#CC1(c2ccc(OC(F)(F)F)cc2)CCN(c2ncc(CN[C@@H]3COc4nc([N+](=O)[O-])cn4C3)cn2)CC1 [Compound 24, (S)-1-(5-(((7-nitro-3,4-dihydro-2H-imidazo[2,1-b][1,3]oxazin-3-yl)amino)methyl)pyrimidin-2-yl)-4-(4-(trifluoromethoxy)phenyl)piperidine-4-carbonitrile] | 3.9 (≈ 0.00716 µM) | 128 | 3.9 (≈ 0.00716 µM) | 128 | 3.9 (≈ 0.00716 µM) | 256 |
| CC1CN(c2ncc(CN[C@@H]3COc4nc([N+](=O)[O-])cn4C3)cn2)CCN1c1ccc(OC(F)(F)F)cc1 (stereo partly drawn) [Compound 19] | 7.8 (≈ 0.0146 µM) | 64 | 7.8 (≈ 0.0146 µM) | 64 | 7.8 (≈ 0.0146 µM) | 128 |
| CC1CN(c2ccc(CN[C@@H]3COc4nc([N+](=O)[O-])cn4C3)cn2)CCN1c1ccc(OC(F)(F)F)cc1 (stereo partly drawn) [Compound 5, (3S)—N-((6-(3-methyl-4-(4-(trifluoromethoxy)phenyl)piperazin-1-yl)pyrid-3-yl)methyl)-7-nitro-3,4-dihydro-2H-imidazo[2,1-b][1,3]oxazin-3-amine] | 1.95 (≈ 0.00366 µM) | – | 1.95 (≈ 0.00366 µM) | – | 3.9 (≈ 0.00731 µM) | – |
| CC1CN(c2ccc(OC(F)(F)F)cc2)CCN1c1ncc(CN[C@@H]2COc3nc([N+](=O)[O-])cn3C2)cn1 (stereo partly drawn) [Compound 20, (3S)—N-((6-(2-methyl-4-(4-(trifluoromethoxy)phenyl)piperazin-1-yl)pyrimidin-3-yl)methyl)-7-nitro-3,4-dihydro-2H-imidazo[2,1-b][1,3]oxazin-3-amine] | 1.95 (≈ 0.00365 µM) | 256 | 1.95 (≈ 0.00365 µM) | 256 | 1.95 (≈ 0.00365 µM) | 512 |
| Cc1nc(N2CCN(c3ccc(OC(F)(F)F)cc3)CC2)ncc1CN[C@@H]1COc2nc([N+](=O)[O-])cn2C1 [Compound 36] | 7.8 (≈ 0.0146 µM) | 64 | 7.8 (≈ 0.0146 µM) | 64 | 7.8 (≈ 0.0146 µM) | 128 |
| N#Cc1nc(N2CCN(c3ccc(OC(F)(F)F)cc3)CC2)ncc1CN[C@@H]1COc2nc([N+](=O)[O-])cn2C1 [Compound 40, (S)-5-(((2-nitro-6,7-dihydro-5H-imidazo[2,1-b][1,3]oxazin-6-yl)amino)methyl)-2-(4-(4-(trifluoromethoxy)phenyl)piperazin-1-yl)pyrimidine-4-carbonitrile] | 7.8 (≈ 0.0143 µM) | 64 | 7.8 (≈ 0.0143 µM) | 64 | 7.8 (≈ 0.0143 µM) | 128 |
| CC1CN(c2ccc(OC(F)(F)F)cc2)CCN1c1ccc(CN[C@@H]2COc3nc([N+](=O)[O-])cn3C2)cn1 (stereo partly drawn) [Compound 6, (3S)—N-((6-(2-methyl-4-(4-(trifluoromethoxy)phenyl)piperazin-1-yl)pyrid-3-yl)methyl)-7-nitro-3,4-dihydro-2H-imidazo[2,1-b][1,3]oxazin-3-amine] | 7.8 (≈ 0.0146 µM) | – | 7.8 (≈ 0.0146 µM) | – | 15.6 (≈ 0.0292 µM) | – |
